Data on two compounds can be found in patent publication US4010258A, “Microbial amylase inhibitor and preparation thereof with the use of streptomyces diasticus var. amylostaticus” (Ajinomoto Co., Inc., priority 1974, dated 1977).

In one data set the test system is amylase. Particulars: prior art statement; cited from earlier work.
For the next data set, the system named is trypsin. The data set is described as follows: Action of various proteases on Amylostatin-A. It is filed as in vitro ADME.
In another data set the target is chymotrypsin (Bos taurus, UniProt P00766). The data set can be described thus: Action of various proteases on Amylostatin-A. It is filed as in vitro ADME.
For the next data set, the target named is T1, papain (Carica papaya, UniProt P00784).
T1 sequence (P00784 134-345): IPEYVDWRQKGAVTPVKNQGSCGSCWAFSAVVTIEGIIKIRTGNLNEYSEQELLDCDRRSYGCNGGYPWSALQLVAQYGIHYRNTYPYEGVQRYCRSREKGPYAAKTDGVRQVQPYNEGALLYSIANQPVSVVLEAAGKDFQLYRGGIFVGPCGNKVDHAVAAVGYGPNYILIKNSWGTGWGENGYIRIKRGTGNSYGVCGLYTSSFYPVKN
The data set can be described thus: Action of various proteases on Amylostatin-A. The format is in vitro ADME.

The target in another data set is pepsin (Sus scrofa, UniProt P00791). The data set can be described thus: Action of various proteases on Amylostatin-A. It is filed as in vitro ADME.
Sequence of pepsin (P00791 60-385): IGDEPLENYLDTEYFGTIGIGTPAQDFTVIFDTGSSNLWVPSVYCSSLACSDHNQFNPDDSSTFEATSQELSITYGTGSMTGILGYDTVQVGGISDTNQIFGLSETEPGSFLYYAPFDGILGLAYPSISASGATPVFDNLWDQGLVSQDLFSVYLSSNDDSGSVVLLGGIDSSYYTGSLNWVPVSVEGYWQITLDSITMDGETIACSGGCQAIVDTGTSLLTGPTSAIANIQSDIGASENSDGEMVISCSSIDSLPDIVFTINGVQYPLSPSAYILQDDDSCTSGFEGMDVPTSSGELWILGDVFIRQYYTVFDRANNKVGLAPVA
Data set [1] is described as follows: Stability in buffer solution (pH and heat). The format is physicochemical.
A short description of another data set: Solubility. It is filed as physicochemical.
Data set [2] relates to digestion and absorption of starch. The data set is described as follows: Biological test on digestibility of starch. The format is in vivo, male rats of Wistar strain. The following applies: rats, 4 hours. The method, then:
An experiment concerning the inhibitory effect of Amylostatin-A on the digestion and absorption of starch in vivo was carried out using sound male rats of Wistar strain weighing from 250 to 300g. After they had been made to fast, receiving only water for 48 hours, 60 rats were selected and divided into 10 groups of each 5 or 10 as shown in Table 4.
Rats in control groups were given either 2.5 ml of an isotonic sodium chloride solution in which 300 mg of soluble starch (Wako Junyaku Co., Inc.) was dissolved or 2.5 ml of an isotonic sodium chloride solution in which 300 mg of corn starch (Japanese Pharmacopia) was suspended. The rats were subjected to a laparotomy, the solution was injected into the stomach and the incision site was sutured. Rats in test groups were given the same amount and kinds of solutions as given to the rats in control groups except that varying amounts of crude Amylostatin-A obtained according to the methods of Example 1 were added as shown in Table 4. The test solutions were administered in the same manner as the control solutions.
After the lapse of definite periods of time, all rats were again laparotomized at the site of the original incision and all contents of the stomach and small intestines were removed by washing with an isotonic sodium chloride solution. To these washings containing residual starch, 25 ml of 1N hydrochloric acid was added. The mixture was heated to carry the hydrolytic reaction to completion and the quantity of reducing sugar formed was determined by Somogyi's method.

The subject of data set [3] is bacterial α-amylase (crystalline). The data set is described as follows: Assay of amylase inhibitory activity (units). The format is biochemical. The following applies: purified powdery preparation, Example 1. The method, then:
The reaction mixture consisting of 4 ml of a 1.5% soluble starch solution in 0.1M acetate buffer solution at pH 5.5, 0.5 ml of distilled water and 0.5 ml of the amylase solution to be assayed (amylase or bacterial α-amylase (crystalline) ) is incubated at 37° C. for 10 minutes and the reaction is terminated by adding a mixture of 5:1 by volume of 0.5N acetic acid and 0.5N hydrochloric acid. From this solution, 0.2 ml is withdrawn and added to 5 ml of N/3000 iodine solution and the absorbency is measured at 660 nm. The amylase activity per one ml of the enzyme solution expressed in units is calculated as follows: [formula] in which D is the optical density of the enzyme solution and Do is the optical density of the control.
The reaction mixture consisting of 0.5 ml of 2 × 10^^-4 % of bacterial α-amylase (crystalline) and 0.5 ml of the solution of Amylostatin-A is incubated at 37° C. for 10 minutes. Any residual amylase activity is determined according to the method of assay of amylase activity described above. One unit of amylase inhibitory activity is defined as the amount of inhibitory activity necessary to inactivate one unit of amylase.

As for `OC[C@H]1NC(O)[C@H](O)[C@@H](O)[C@@H]1O` (stereo partly shown) [Nojirimycin], in the data set with amylase, the amylase inhibitory activities result is reported as “extremely low”.

As to Amylostatin-A, the “inactivation of the inhibitory activity on amylase by protease” value in the data set on trypsin, on chymotrypsin, on papain and at pepsin was “unable to inactivate” throughout. The Stability result in [1] (buffer solution, pH 1 to 12, 37° C. for 12 hours) is recorded as “substantial stability”; in [1] (heated at 100° C. for 30 minutes, pH 1 to 12) it was “substantial stability”. In addition, the Solubility entry in the data set “Solubility” (acetone) was “substantially insoluble”; in “Solubility” (chloroform), “substantially insoluble”; in “Solubility” (ethanol), “substantially insoluble”; in “Solubility” (methanol), “substantially insoluble”; in the data set “Solubility” (pyridine) it was “soluble”; in the data set “Solubility” (water) it was “soluble”. The “residual % of starch (average)” value is 82.5% in data set [2] (300 mg cornstarch into the stomach, 2.5 mg crude Amylostatin-A added); 93.6% in data set [2] (300 mg cornstarch into the stomach, 5 mg crude Amylostatin-A added); 92.5% in data set [2] (300 mg cornstarch into the stomach, 10 mg crude Amylostatin-A added); 63.8% in data set [2] (300 mg soluble starch (dissolved on heating) into the stomach, 5 mg crude Amylostatin-A added); 65.7% in data set [2] (300 mg soluble starch (dissolved on heating) into the stomach, 10 mg crude Amylostatin-A added). Also, the amylase inhibitory activity in data set [3] was 3.5 × 10^4 units per mg.
